Marks after values point to notes of the source that are not given here. Some results are limits rather than exact numbers.

The text below walks through data of patent publication US12326385B2, “Cell-permeable fluorogenic fluorophores” (MAX-PLANCK-GESELLSCHAFT ZUR FÖRDERUNG DER WISSENSCHAFTEN E. …, priority 2018, dated 2025).

A short description of series [1]: UV-Vis and fluorescence spectroscopy of free dye or probe in buffer or SDS. The format is physicochemical. On the procedure: UV-Vis and Fluorescence Spectroscopy
Spectroscopy was performed using 96-well plate (Thermo Fisher) with optical bottom. All measurements were taken at ambient temperature (25±2° C.). Absorption and fluorescence spectra were recorded on Spark® microplate reader (Tecan). Maximum absorption wavelength (λabs), and maximum emission wavelength (λem) were taken in 10 mM HEPES, pH 7.3 buffer unless otherwise noted; reported values for ε are averages (n=3). Normalized spectra are shown for clarity.
(§1) SDS (10% in 10 mM HEPES) was added with dilution of 100 folds as a control group. Absorbance and fluorescence measurements were performed in 96-well plate (Thermos Fisher) with optical bottom.

A short description of series [2]: UV absorbance spectra in water-dioxane mixtures (D50). To be noted: dioxane-H2O mixture (v/v: 90/10-10/90), dielectric constant at half-maximal zwitterion absorbance. The class given is physicochemical. The source says: The inventors' efforts to improve the permeability and fluorogenicity of rhodamine derivatives for live-cell imaging focused on increasing the propensity of rhodamines to form the spirocyclic, non-fluorescent form without affecting the spectroscopic properties of the parental molecule. The inventors initially considered replacing the carboxylic acid responsible for formation of the spirolactone with an amide. However, such rhodamine derivatives have been reported to strongly favor spirolactams at physiological pH, making them unsuitable for live-cell imaging. The inventors therefore attempted to destabilize the spirolactam by attaching different electron-withdrawing groups to the underlying amides. Specifically, the inventors converted 6-carboxytetramethylrhodamine (6-TAMRA), a widely used fluorophore with good photophysical properties, into the corresponding acyl cyanamide (132), acyl sulfonamide (133) and acyl sulfamide (134 and 135), (FIG. 32c). The acyl cyanamide of rhodamine B was previously reported to exist as a fluorescent zwitterion at physiological pH. Acyl sulfonamides and acyl sulfamides are used in medicinal chemistry as anionic pharmacophores. Amides 132-135 were prepared in three simple steps from commercially available 6-TAMRA (FIG. 32c). To investigate the propensity of these amides to form the corresponding spirolactams, the inventors measured their absorbance spectra in water-dioxane mixtures with […]. The equilibrium between the zwitterionic and spirocyclic form can then be characterized by the D50 value, which is defined as the dielectric constant at which absorbance of the fluorescent zwitterion is decreased by half compared to the highest recorded absorbance value measured in dioxane-water mixtures. […] In comparison, the D50 value of TAMRA is around 10 showing that in aqueous solution TAMRA exists predominantly in its open form and TAMRA-based probes are usually not fluorogenic. The measured D50 values of amides 132-135 ranged from 32 to around 60 (FIG. 32d), which indicates the potential of these fluorophores for the generation of permeable and fluorogenic probes. […] The possibility to tune the equilibrium between the open and closed form of the fluorophore by varying the substituents on the amide is an important feature of this approach.
Measurements of UV Absorbance Spectra in Water-Dioxane Mixtures
Solutions of 5 μM Rhodamine B, RhB-CH3 (201, Z=CH3), RhB-Ben (201, Z=CH2Ph), RhB-CN (201, Z=CN), RhB-SCH3 (115), RhB-SNH2 (116), RhB-SNMe2 (117), RhB-CONH2 (118), WS1-SCF3, (119) WS1-SCH3 (120), WS1-CN (121), WS1-SNH2 (122), WS1-SO (123), WS1-UREA (124) in water-dioxane mixtures containing 10%, 20%, 30%, 40%, 50%, 60%, 70%, 80% and 90% of dioxane (by volume) were prepared. The absorbance spectra were recorded using a Spark® microplate reader (Tecan). The spectra were integrated from 400 to 700 nm for Rhodamine B-based fluorophores and from 350 to 750 nm for WS1-based fluorophores using the software Prism 7. Normalized integrals were plotted against dielectric constant of water-dioxane mixture.

The next series concerns SNAP-Halo-tag. Nature of the series: Increase in absorbance and fluorescence on binding to SNAP-HaloTag protein in vitro. To be noted: binding with SNAP-Halo-tag. The format is biochemical. On the procedure:
Measurement of Increase in Absorbance and Fluorescence.
SNAP-HaloTag protein were used as a 85 μM-200 μM solution in 75 mM NaCl, 50 mM TRIS-HCl, pH 7.4 with 50% v/v glycerol (TBS-glycerol). SNAPTag and HaloTag based fluorogenic probes were diluted to 1.0-2.0 μM in 10 mM HEPES, pH 7.3. Then an aliquot of SNAPTag/HaloTag protein (1.5-2.0 equiv) was added and the resulting mixture was incubated until consistent absorbance signal was observed (˜60 min).
as §1

The next series has as its system F-actin. Nature of the series: In vitro absorbance and fluorescence response on binding to actin. The format is biochemical. The settings on record: for ε: general actin buffer; for F/F0: ± s.e.m.; for increase in absorbance / increase in fluorescence intensity: upon binding to F-actin, in vitro.
Another series relates to F-actin in U2OS cells. The experiment in a line: No-wash live-cell imaging of F-actin. The class given is cell-based. The text has this: Fluorescent probes for live-cell imaging of cytoskeletal structures have become important tools in the life sciences. In particular, the far-red, SiR-based probes for F-actin (SiR-actin) and microtubules (SiR-tubulin) have become popular as they are fluorogenic and enable no-wash imaging with little background signal. SiR-actin and SiR-tubulin are based on SiR linked to the F-actin-binder jasplakinolide and microtubule-binder docetaxel, respectively. Binding to their targets shifts for both probes the equilibrium between the cell-permeable spirolactone and the fluorescent zwitterion towards the fluorescent form. To generate fluorescent stains for F-actin and microtubule in different colors, the inventors coupled jasplakinolide and docetaxel to 6-TAMRA and its N,N-dimethylsulfamide derivative (probes 169 and 172, named MaP555-actin and MaP555-tubulin in the following). […] The specificity of MaP555-actin and MaP555-tubulin was further confirmed by co-staining with SiR-actin and SiR-tubulin. […] Similarly, binding of MaP555-tubulin to microtubules caused a high increase in absorbance (5.8-fold) and fluorescence (11-fold).
In addition, the inventors coupled the acyl sulfonamide of carbopyronine to jasplakinolide, yielding the actin probe MaP618-actin (171).

Where [3] appears, read: 0.1% SDS in HEPES buffer (pH 7.3).
Setting [4] is: 0.2% SDS in general actin buffer.
Where [5] appears, read: MaP618-actin, orange fluorescence.

`CN(C)c1ccc2c(-c3cc(C(=O)[O-])ccc3C(=O)O)c3ccc(=[N+](C)C)cc-3oc2c1` [6-TAMRA, 6-carboxytetramethylrhodamine, reference compound] displayed a Φ in series [1] (setting [3]) of 0.39. Further, in series [1] (HEPES buffer (pH 7.3)), the Φ is given as 0.43, the ε is listed as 84,000^a M^−1cm^−1, the λabs was 550 nm and the λem is 578 nm. Besides, the D50 in series [2] is 12^d. Moreover, the D50 result in series [2] (listed as TAMRA) is on record as “around 10”.
Consider `CN(C)S(=O)(=O)N1C(=O)c2ccc(C(=O)O)cc2C12c1ccc(N)cc1Oc1cc(N)ccc12` [compound 21], for which the Φ in series [1] (setting [3]) turned out to be 0.69. In series [1] (HEPES buffer (pH 7.3)), the Φ is 0.68, the ε is on record as 74,000^a M^−1cm^−1, the λabs was 502 nm and the λem amounted to 526 nm. In addition, in series [2], the D50 is recorded as 70^d. For the same molecule, the D50 in series [2] (listed as MaP510) was 70.
As to `CN1CCc2cc3c(cc21)[Si](C)(C)c1cc2c(cc1C31OC(=O)c3ccc(C(=O)O)cc31)CCN2C` [compound 35, reference compound], the Φ in series [1] (setting [3]) is 0.16. Besides, in series [1] (HEPES buffer (pH 7.3)), the ε is given as 104,000^a M^−1cm^−1, the λabs turned out to be 694 nm and the λem was 718 nm. Besides, the D50 in series [2] was 54^d. Further, the Φ in the series on SNAP-Halo-tag came to 0.17.
For the molecule `CN(C)c1ccc2c(c1)Oc1cc(N(C)C)ccc1C21c2cc(C(=O)O)ccc2C(=O)N1C#N` [compound 132], the Φ in series [1] (setting [3]) is recorded as 0.45^a/0.45^c. For the same molecule, in series [1] (HEPES buffer (pH 7.3)), the Φ is listed as 0.45^a/0.45^c, the ε is listed as 89,000^a M^−1cm^−1, the λabs was 552 nm and the λem was found to be 580 nm. Besides, the D50 in series [2] is recorded as 32^d.
`CN(C)c1ccc2c(c1)Oc1cc(N(C)C)ccc1C21c2cc(C(=O)O)ccc2C(=O)N1S(C)(=O)=O` [compound 133] had a Φ in series [1] (setting [3]) of 0.46. For the same molecule, in series [1] (HEPES buffer (pH 7.3)), the Φ was 0.43, the ε is given as 89,000^a M^−1cm^−1, the λabs was 553 nm and the λem was 580 nm. Besides, the D50 in series [2] was 44^d.
Turning to `CN(C)c1ccc2c(c1)Oc1cc(N(C)C)ccc1C21c2cc(C(=O)O)ccc2C(=O)N1S(N)(=O)=O` [compound 134], in series [1] (setting [3]), the Φ is 0.44^a/0.44^c. In series [1] (HEPES buffer (pH 7.3)), the Φ was 0.44^a/0.44^c, the ε is reported as 83,000^a M^−1cm^−1, the λabs is 552 nm and the λem amounted to 580 nm. In series [2], the D50 is listed as 57^d.
Consider `CN(C)c1ccc2c(c1)Oc1cc(N(C)C)ccc1C21c2cc(C(=O)O)ccc2C(=O)N1S(=O)(=O)N(C)C` [compound 135], for which, in series [1] (setting [3]), the Φ was found to be 0.43. Besides, in series [1] (HEPES buffer (pH 7.3)), the Φ is recorded as 0.4, the ε is 88,000^a M^−1cm^−1, the λabs came to 553 nm and the λem is 580 nm. In addition, the D50 in series [2] is 58^d.
Take `CN1CCc2cc3c(cc21)[Si](C)(C)c1cc2c(cc1C31c3cc(C(=O)O)ccc3C(=O)N1C#N)CCN2C` [compound 140]: in series [1] (HEPES buffer (pH 7.3)), the ε is on record as 8,200^a M^−1cm^−1, the λabs was found to be 698 nm and the λem came out at 720 nm. Besides, the D50 in series [2] is recorded as >75^d.
Turning to `C/C1=C\CC[C@H](C)OC(=O)C[C@H](c2ccc(O)cc2)NC(=O)[C@@H](Cc2c[nH]c3ccccc23)N(C)C(=O)[C@H](CCCCNC(=O)CCCCCNC(=O)c2ccc3c(c2)C2(c4ccc(N(C)C)cc4Oc4cc(N(C)C)ccc42)N(S(=O)(=O)N(C)C)C3=O)NC(=O)[C@@H](C)C1` [compound 169], in the series with F-actin (setting [4]), the Φ is reported as 0.49 and the “ε^SDS” value was 103,000 M^−1cm^−1. In addition, in the series on F-actin (binding with actin), the Φ was 0.57, the “ε^protein” value is reported as 95,000 M^−1cm^−1, the λabs is recorded as 558 and the λem was 580. Further, in the series on F-actin, the ε was 3,600 M^−1cm^−1, the increase in absorbance was 26 fold and the “increase in fluorescence intensity” value is recorded as 107 fold. The F/F0 in the series with F-actin (ratio of fluorescence intensities at 580 nm in the presence and absence of actin) is 107 ± 9.6^m. For the same molecule, the “live-cell staining of F-actin” value with F-actin in U2OS cells was “enabled no-wash, high-contrast staining”.
Consider `C/C1=C\CC[C@H](C)OC(=O)C[C@H](c2ccc(O)cc2)NC(=O)[C@@H](Cc2c[nH]c3ccccc23)N(C)C(=O)[C@H](CCCCNC(=O)CCCCCNC(=O)c2ccc3c(c2)C2(c4ccc(N(C)C)cc4C(C)(C)c4cc(N(C)C)ccc42)N(S(C)(=O)=O)C3=O)NC(=O)[C@@H](C)C1` [compound 171], for which, in the series on F-actin (setting [4]), the Φ is 0.71 and the “ε^SDS” value was 24,000^i M^−1cm^−1. In the series on F-actin (setting [5]), this molecule gave a λem of 635 nm and a λex of 618 nm. In the series with F-actin (binding with actin), the Φ was 0.78, the “ε^protein” value was 61,000 M^−1cm^−1, the λabs came to 618 and the λem is recorded as 635. Further, in the series on F-actin, the ε stood at 500 M⁻¹ cm⁻¹, the increase in absorbance turned out to be 122 fold and the “increase in fluorescence intensity” value was found to be 449 fold. Moreover, in the series with F-actin (incubation with F-actin), the “fluorogenicity relative to SiR-actin” value was “about four times more fluorogenic”. For the same molecule, the F/F0 in the series on F-actin (ratio of fluorescence intensities at 635 nm in the presence and absence of actin) is given as 449 ± 6.8^j. For the same molecule, the “live-cell staining of F-actin” value with F-actin in U2OS cells is “clearly reveal F-actin structures”.
